Measurements published in patent US20050108047A1, “Business methods for commercializing antibiotics” (priority 2003, published 2005).

System: E. coli strain MG1655 and isogenic loss of function strains
Experiment: Stressful Lifestyle Adaptive Mutation (SLAM) assay with ciprofloxacin
Assay type: cell-based
Method: […]. Five colonies of each strain, selected from 30 ug/mL kan plates, were grown for 24 hours in LB at 37° C. Dilutions of each culture were made in duplicate and plated on LB plates to determine the number of viable cells.
Also, two 150 μL cultures from each strain were plated on five additional plates for use in ‘survival’ experiments (see below). […] Every twenty-four hours for thirteen days post-plating, colonies were counted and marked and up to 10 representative colonies per strain were stocked in 15% glycerol and stored at −80° C., for use in the reconstruction experiments (see below). […]. After thirteen days, a reconstruction experiment [see FIG. 6; also see Bull, H J, Lombardo, M J, Rosenberg, S M: Stationary-phase mutation in the bacterial chromosome: recombination protein and DNA polymerase IV dependence. Proc Natl Acad Sci USA 2001, 98:8334-8341; and Rosenberg, S M: Evolving responsively: adaptive mutation. Nature Rev Genet 2001, 2:504-515] was performed to determine which of the resistant colonies isolated had evolved resistance via adaptive mutation after exposure to the antibiotic. […]. Only those colonies that grew in a shorter time during the reconstruction experiment than in the original experiment were considered to have acquired an adaptive mutation, i.e. occurred after exposure to the antibiotic. […].
[…]. […]

For `O=C(O)c1cn(C2CC2)c2cc(N3CCNCC3)c(F)cc2c1=O` [ciprofloxacin], the “ability to evolve resistance to ciprofloxacin, LexA(Ind−) strain versus wild type” value (LexA S119A mutant, 35 ng/mL ciprofloxacin) was “more than two orders of magnitude less able to evolve resistance” and the “decrease in rate of evolving the ability to grow at 60 ng/mL ciprofloxacin, LexA mutant” value (mutants selected at 35 ng/mL ciprofloxacin) was 300 fold.
